Publication PMC8951016, “Computational Design and Biological Evaluation of Analogs of Lupin Peptide P5 Endowed with Dual PCSK9/HMG-CoAR Inhibiting Activity” (Pharmaceutics, 2022)

What was measured:
[1] = test system: LDLR on HepG2 cell surface; assay: ICW, LDLR localized in cellular membranes of HepG2 (peptide alone); format: cell-based, human; settings: 50 µM, vs control, average ± SD, four independent experiments in duplicate
Procedure: For the experiments, a total of 3 × 10^4 HepG2 cells/well were seeded in 96-well plates and treated with 4.0 μg/mL PCSK9-WT and 4.0 μg/mL PCSK9 + peptides P5 and/or P5 analogs (50 µM) and vehicle (H2O) for 2 h at 37 °C under 5% CO2 atmosphere. Thus, cells underwent to ICW assay following conditions already optimized. See Supplementary Materials for detailed information. […]
cLex Co., Nagano, Japan). The peptides (P5, P5-Best, P-H6A, and P5-S7A) were synthe-sized by the company GeneScript (Piscataway, NJ, USA) at >95% purity. The antibody against HMG-CoAR was bought from Abcam (Cambridge, UK). […]
HMG-CoAR Aactivity Assay. […] Subsequently, the samples were mixed and the absorbance at 340 nm read by the microplate reader Synergy H1 (Winooski, VT, USA) at time 0 and 10 min. The HMG-CoAR-dependent oxidation of NADPH and the inhibition properties of peptides were measured by absorbance reduction, which is directly proportional to enzyme activ- […]
In Vitro PCSK9-LDLR Binding Assay. […] The reaction was stopped with 2.0 M sulfuric acid and the absorbance at 450nm was measured using the Synergy H1 fluorescent plate reader […]

PCSK9 = test system: PCSK9; parameters: method as in 3 sources, ref 49 = [49]; PMID 35011066; doi:10.3390/nu14010193; 49. Macchi C. Greco M.F. Ferri N. Magni P. Arnoldi A. Corsini A. Sirtori C.R. Ruscica M. Lammi C. Impact of Soy β-Conglycinin Peptides on PCSK9 Protein Expression in HepG2 Cells Nutrients 2021 14 193 ||| ref 22 = [22]; doi:10.1016/j.jff.2017.02.009; 22. Zanoni C. Aiello G. Arnoldi A. Lammi C. Investigations on the hypocholesterolaemic activity of […] and LTFPGSAED, two peptides from lupin β-conglutin: Focus on LDLR and PCSK9 pathways J. Fu ||| ref 24 = [24]; PMID 33808034; doi:10.3390/nu13030863; 24. Lammi C. Aiello G. Bollati C. Li J. Bartolomei M. Ranaldi G. Ferruzza S. Fassi E.M.A. Grazioso G. Sambuy Y. Trans-Epithelial Transport, Metabolism, and Biological Activity Assessment of the Multi-; settings: through downregulation of HNF-1α; cited from earlier work
LDLR = test system: LDLR; parameters: method as in 3 sources, ref 48 = [48]; doi:10.1111/jfbc.12757; 48. Lammi C. Zanoni C. Arnoldi A. Aiello G. […] (P3), a peptide from lupin protein, absorbed by Caco-2 cells, modulates cholesterol metabolism in HepG2 cells via SREBP-1 activation J. Food B ||| ref 22 = [22]; doi:10.1016/j.jff.2017.02.009; 22. Zanoni C. Aiello G. Arnoldi A. Lammi C. Investigations on the hypocholesterolaemic activity of […] and LTFPGSAED, two peptides from lupin β-conglutin: Focus on LDLR and PCSK9 pathways J. Fu ||| ref 24 = [24]; PMID 33808034; doi:10.3390/nu13030863; 24. Lammi C. Aiello G. Bollati C. Li J. Bartolomei M. Ranaldi G. Ferruzza S. Fassi E.M.A. Grazioso G. Sambuy Y. Trans-Epithelial Transport, Metabolism, and Biological Activity Assessment of the Multi-; settings: through activation of SREBP-2; cited from earlier work

## LILPKHSDAD [Peptide P5, natural peptide derived from a peptic lupin protein hydrolysate]
[1]
  increase of LDLR level in cellular membranes of HepG2: 153.6 ± 16.4%
PCSK9
  PCSK9 protein levels and secretion (P5, earlier work, words): reduces the PCSK9 protein levels and its secretion
LDLR
  LDLR protein level in HepG2 (P5, earlier work, words): increases the LDLR protein level
